Measured values: patent publication US4996225A, “Tri-phenyl alkane derivatives and their oestrogenic, anti-oestrogenic and progestanic uses” (Farmos Group Ltd., priority 1982, dated 1991)

Tests used:
oestrogen receptors = target: T1, oestrogen receptors (Rattus norvegicus, UniProt P06211); test: affinity for oestrogen receptors, competition with 3H-17-β-estradiol in rat uterus cytosol (dextran-charcoal method); format: binding; conditions: read-out: Estrogen receptor affinity (concentration of compound where 50% competition (inhibition) with 3H-estradiol occurred)
T1 construct: rat uterus cytosol preparation; from tissue; host or cells: rat uterus cytosol
T1 sequence (P06211 1-600): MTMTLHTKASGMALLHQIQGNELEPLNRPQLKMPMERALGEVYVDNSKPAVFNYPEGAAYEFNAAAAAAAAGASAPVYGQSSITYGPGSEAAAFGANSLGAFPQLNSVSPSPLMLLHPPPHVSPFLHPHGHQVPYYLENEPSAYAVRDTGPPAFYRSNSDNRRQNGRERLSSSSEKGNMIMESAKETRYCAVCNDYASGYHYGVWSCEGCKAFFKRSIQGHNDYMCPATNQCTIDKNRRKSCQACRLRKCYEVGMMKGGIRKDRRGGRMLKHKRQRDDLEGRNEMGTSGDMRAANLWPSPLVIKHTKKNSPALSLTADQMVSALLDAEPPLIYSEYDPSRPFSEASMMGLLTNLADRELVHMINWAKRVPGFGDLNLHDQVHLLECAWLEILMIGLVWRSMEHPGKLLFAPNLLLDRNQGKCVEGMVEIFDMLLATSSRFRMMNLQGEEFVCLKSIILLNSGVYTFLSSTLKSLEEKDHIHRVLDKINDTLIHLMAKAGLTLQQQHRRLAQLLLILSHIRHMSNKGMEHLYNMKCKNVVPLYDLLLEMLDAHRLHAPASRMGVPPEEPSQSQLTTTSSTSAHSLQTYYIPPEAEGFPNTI
Description: The affinity of the new compounds for oestrogen receptors was determined by the ability to compete with ^3 H-labelled 17-β-estradiol in rat uterus cytosol preparation. After incubation, receptor-bound and receptor-unbound ligands were separated by a known dextrancharcoal method.

[1] = system: DMBA-induced rat mammary adenocarcinomas; test: antitumour effect in vivo against DMBA-induced rat mammary adenocarcinoma; conditions: for growth rate of the tumours (in words) / amount of new tumours (in words): rat, in vivo
Description: The anti-tumour effect was investigated in vivo against DMBA-induced rat mammary adenocarcinomas, transplantable mammary and ovarial adenocarcinoma and transplantable prostatic squamous cell carcinoma by the following methods:
Mammary adenocarcinomas were induced by DMBA in 35-40 days old female rats. […] Tumour size and numbers of tumours were evaluated twice a week. Tumour sizes in the control group, treated with solvent, were compared with the test groups.
The size refers to the width×height of the tumour. The growth rate is a difference between sizes compared with that of the first day of the treatment.

[2] = system: estradiol induced weight increase in immature mouse uterus; test: antiestrogenic effect, inhibition of oestrogen-induced uterus weight increase in immature mice; format: in vivo; conditions: for inhibition of estradiol-induced uterus weight increase / inhibition of estradiol induced effect in mouse uterus / inhibition of estradiol-induced uterus weight increase (in words): 5 mg/kg; for inhibition of estradiol-induced uterus weight increase / inhibition of estradiol-induced uterus weight increase (in words): estradiol 5 μg/kg; for effect with estradiol (in words) / reduction in the weights of mice uterus, with estradiol: with estradiol 0.05 mg/kg; for anti-estrogenic effect (in words): immature mouse uterus
Description: (§1) The oestrogen-antiestrogen (progesterone) effect of the new compounds in vivo was determined as follows: (1) The oestrogenic properties were determined by administering the new compounds, suspended in sesame oil, subcutaneously to 21 days old immature mice on three consecutive days. The mice were killed on the fourth day and the uterus was weighed. […] The weight correlates with the oestrogenic effect of the compound tested. […] In this case, the ability of the molecules to inhibit oestrogen-induced uterus weight increase was also investigated.

immature mouse uterus [3] = test: oestrogenic effect, uterus weight of immature mice; format: in vivo; conditions: for estrogenic effect of their own (in words): up to 5 mg/kg
Description: as §1

[4] = system: MCF-7 cell line (human mammary adenocarcinoma); test: anti-tumour effect in vitro, growth of MCF-7 cell line (bioluminescence assay, intracellular ATP); format: cell-based; conditions: read-out: Antitumour effect against MCF-7 cell line (IC50 = concentration of compound where 50% inhibition of cell growth could be seen)
Description: The anti-tumour effect was studied in vitro as follows:
The amount of living cells after 4 h, 24 h and 48 h incubations were determined by bioluminescence assay (intracellular ATP determination).
inhibition of cell growth could be seen.

immature mouse uterus [5] = test: progestanic effect, uterus weight of immature mice (alone or with medroxyprogesterone acetate); format: in vivo; parameters: reduction in the weight of a mouse uterus, given alone / reduction in the weight of uterus with medroxyprogesterone / reduction in the weights of mice uterus, given alone: concentration or dose not given beside the values
[6] = with medroxyprogesterone 0.06 mg/kg

Compound: OCCC(c1ccc(O)cc1)C(O)(c1ccccc1)c1ccc(O)cc1 (stereo not drawn) [Compound 8, 1-phenyl-1,2-bis(4-hydroxyphenyl)-butane-1,4-diol]
- IC50 (oestrogen receptors): 1 to 10 µM

Compound: CCN(CC)CCOc1ccc(/C(=C(/CCCl)c2ccccc2)c2ccccc2)cc1 [Compound 24, 4-chloro-1,2-diphenyl-1-[4-[2-(N,N-diethylamino)ethoxy]phenyl]-1-butene]
- growth rate of the tumours (in words) [1]: only the growth rate of the tumours was reduced
- inhibition of estradiol-induced uterus weight increase [2]: less than 67%
- increase in uterus weight (immature mouse uterus [3]; 5 mg/kg): ≤ 55%
- IC50 [4]: 1 to 5 µM

Compound: CN(C)CCOc1ccc(/C(=C(\CCCl)c2ccccc2)c2ccccc2)cc1 [Compound 18, 4-chloro-1,2-diphenyl-1-[4-[2-(N,N-dimethylamino)ethoxy]phenyl]-1-butene]
- effect with medroxyprogesterone (in words) (immature mouse uterus [5]; [6]): no effect
- effect with estradiol (in words) [2]: not anti-
- reduction in the weights of mice uterus, with estradiol [2]: < 10%
- effect given alone: estrogenic (in words) (immature mouse uterus [3]): estrogenic
- increase in the weights of mice uterus, given alone (immature mouse uterus [3]): 20%
- IC50 [4]: 1 to 5 µM

Compound: OCC[C@H](c1ccccc1)[C@@](O)(c1ccccc1)c1ccc(O)cc1 (relative stereo) [Compound 1, 1,2-diphenyl-1-(4-hydroxyphenyl)-butane-1,4-diol]
- IC50 (oestrogen receptors): 1 to 10 µM

Compound: OCC/C(=C(\c1ccccc1)c1ccc(O)cc1)c1ccccc1 [Compound 11, 1,2-diphenyl-1-(4-hydroxyphenyl)-1-buten-4-ol]
- reduction in the weight of a mouse uterus, given alone (immature mouse uterus [5]; given alone): 56%
- reduction in the weights of mice uterus, given alone (immature mouse uterus [5]; given alone, Table 2A): 56%
- interaction with medroxyprogesterone (in words) (immature mouse uterus [5]; with medroxyprogesterone): synergistic effect with medroxyprogesterone
- effect with medroxyprogesterone (in words) (immature mouse uterus [5]; [6]): no inhibition
- reduction in the weights of mice uterus with medroxyprogesterone, compared to control (immature mouse uterus [5]; [6]): 40%
- inhibition of estradiol induced effect in mouse uterus [2]: 31%
- effect given alone: antiestrogenic (in words) ([2]; given alone): anti-
- anti-estrogenic effect (in words) [2]: possessed anti-estrogenic effects
- effect with estradiol (in words) [2]: anti-
- reduction in the weights of mice uterus, with estradiol [2]: 31%
- estrogenic effect of their own (in words) (immature mouse uterus [3]): no estrogenic effect of their own
- IC50 (oestrogen receptors): 1 to 10 µM

Compound: ClCC/C(=C(/c1ccccc1)c1ccc(OCCN2CCCC2)cc1)c1ccccc1 [Compound 26, 4-chloro-1,2-diphenyl-1-[4-[2-(1-pyrrolidinyl)-ethoxy]phenyl]-1-butene]
- growth rate of the tumours (in words) [1]: only the growth rate of the tumours was reduced
- inhibition of estradiol-induced uterus weight increase [2]: less than 33%
- increase in uterus weight (immature mouse uterus [3]; 5 mg/kg): ≤ 30%
- IC50 [4]: 1 to 5 µM

Compound: OCC/C(=C(/c1ccccc1)c1ccc(O)cc1)c1ccccc1 [Compound 10, 1,2-diphenyl-1-(4-hydroxypheny)-1-buten-4-ol]
- IC50 (oestrogen receptors): 0.1 to 1 µM

Compound: OCCC/C(=C(/c1ccccc1)c1ccc(O)cc1)c1ccccc1 [6, (E)-isomer]
- IC50 [4]: 5 to 10 µM

Compound: CN(C)CCOc1ccc(/C(=C(/CCO)c2ccccc2)c2ccccc2)cc1 [Compound 20, 1,2-diphenyl-1-[4-[2-(N,N-dimethylamino)ethoxy]phenyl]-1-buten-4-ol]
- growth rate of the tumours (in words) [1]: only the growth rate of the tumours was reduced
- inhibition of estradiol-induced uterus weight increase [2]: less than 33%
- inhibition of estradiol-induced uterus weight increase (in words) [2]: inhibited the uterus weight increase in a statistically significant manner
- increase in uterus weight (immature mouse uterus [3]; 5 mg/kg): less than 30%
- increase in uterus weight (in words) (immature mouse uterus [3]; 5 mg/kg): statistically significant increase in uterus weight

Compound: CN(C)CCOc1ccc([C@@]2(c3ccccc3)OCC[C@@H]2c2ccccc2)cc1 (relative stereo) [Compound 16, 2,3-diphenyl-2-[4-[2-(N,N-dimethylamino)-ethoxy]phenyl]-tetrahydrofuran]
- estrogenic effect of their own (in words) (immature mouse uterus [3]): no estrogenic effect of their own
- IC50 (oestrogen receptors): 10 to 100 µM
- IC50 [4]: 5 to 10 µM

Compound: CC(=O)OCC/C(=C(\c1ccccc1)c1ccc(OCCN(C)C)cc1)c1ccccc1 [Compound 19]
- growth rate of the tumours (in words) [1]: only the growth rate of the tumours was reduced
- inhibition of estradiol-induced uterus weight increase (in words) [2]: did not inhibit
- increase in uterus weight (immature mouse uterus [3]; 5 mg/kg): ≤ 30%
- IC50 [4]: 1 to 5 µM

Compound: Oc1ccc(C2CCOC2(c2ccccc2)c2ccc(O)cc2)cc1 (stereo not drawn) [Compound 9, 2-phenyl-2,3-bis(4-hydroxyphenyl)-tetrahydrofuran]
- effect with estradiol (in words) [2]: not anti-
- reduction in the weights of mice uterus, with estradiol [2]: < 10%
- effect given alone: estrogenic (in words) (immature mouse uterus [3]): estrogenic
- increase in the weights of mice uterus, given alone (immature mouse uterus [3]): 50%
- IC50 (oestrogen receptors): 0.1 to 1 µM

Compound: ClCC/C(=C(\c1ccccc1)c1ccc(OCCN2CCCC2)cc1)c1ccccc1 [Compound 25, 4-chloro-1,2-diphenyl-1-[4-[2-(1-pyrrolidinyl)-ethoxy]phenyl]-1-butene]
- amount of new tumours (in words) [1]: the amount of new tumours decreased
- growth rate of the tumours (in words) [1]: the growth rate of the tumours decreased
- inhibition of estradiol-induced uterus weight increase [2]: 68-100%
- increase in uterus weight (immature mouse uterus [3]; 5 mg/kg): ≤ 55%
- IC50 [4]: < 5 µM

Compound: COc1ccc(C(=C(CCO)c2ccccc2)c2ccccc2)cc1 [Compound 3, 1,2-diphenyl-1-(4-methoxyphenyl)-1-buten-4-ol]
- IC50 (oestrogen receptors): 1 to 10 µM

Compound: OCCCC(=C(c1ccccc1)c1ccc(O)cc1)c1ccccc1 [Compound 6, 1,2-diphenyl-1-(4-hydroxyphenyl)-1-penten-5-ol]
- IC50 (oestrogen receptors): 0.1 to 10 µM

Compound: ClCC[C@H](c1ccccc1)[C@H](c1ccccc1)c1ccc(OCCN2CCCC2)cc1 (relative stereo) [Compound 28, 4-chloro-1,2-diphenyl-1-[4-[2-(1-pyrrolidinyl)-ethoxy]phenyl]-butane]
- amount of new tumours (in words) [1]: the amount of new tumours decreased
- growth rate of the tumours (in words) [1]: the growth rate of the tumours decreased
- inhibition of estradiol-induced uterus weight increase [2]: 68-100%
- increase in uterus weight (immature mouse uterus [3]; 5 mg/kg): ≤ 55%
- IC50 [4]: 5 to 10 µM

Compound: Oc1ccc(/C(=C(/CCCl)c2ccccc2)c2ccccc2)cc1 [Compound 15, 4-chloro-1,2-diphenyl-1-(4-hydroxyphenyl)-1-butene]
- inhibition of estradiol induced effect in mouse uterus [2]: 25%
- anti-estrogenic effect (in words) [2]: possessed anti-estrogenic effects
- effect with estradiol (in words) [2]: anti-
- reduction in the weights of mice uterus, with estradiol [2]: 25%
- effect given alone: estrogenic (in words) (immature mouse uterus [3]): estrogenic
- increase in the weights of mice uterus, given alone (immature mouse uterus [3]): 20%
- IC50 (oestrogen receptors): 1 to 10 µM
- IC50 [4]: 5 to 10 µM

Compound: ClCC[C@@H](c1ccccc1)[C@H](c1ccccc1)c1ccc(OCCN2CCCC2)cc1 (relative stereo) [Compound 27, 4-chloro-1,2-diphenyl-1-[4-[2-(1-pyrrolidinyl)-ethoxy]phenyl]-butane]
- amount of new tumours (in words) [1]: the amount of new tumours decreased
- growth rate of the tumours (in words) [1]: the growth rate of the tumours decreased
- inhibition of estradiol-induced uterus weight increase [2]: less than 33%
- increase in uterus weight (immature mouse uterus [3]; 5 mg/kg): ≤ 55%
- IC50 [4]: 1 to 5 µM

Compound: CC(=O)O[C@]1(C(C)=O)CC[C@H]2[C@@H]3C[C@H](C)C4=CC(=O)CC[C@]4(C)[C@H]3CC[C@@]21C [Medroxyprogesterone acetate, reference compound]
- inhibition in the weight of immature mouse uterus (immature mouse uterus [5]; positive control): up to 40%

Compound: CN(C)CCOc1ccc([C@](O)(c2ccccc2)[C@H](CCO)c2ccccc2)cc1 (relative stereo) [Compound 17, 1,2-diphenyl-1-[4-[2-(N,N-dimethylamino)-ethoxy]phenyl]butane-1,4-diol]
- estrogenic effect of their own (in words) (immature mouse uterus [3]): no estrogenic effect of their own
- IC50 (oestrogen receptors): 10 to 100 µM

Compound: CN(C)CCOc1ccc(/C(=C(\CCO)c2ccccc2)c2ccccc2)cc1 [Compound 12, 1,2-diphenyl-1-[4-[2-(N,N-dimethylamino)-ethoxy]phenyl]-1-buten-4-ol]
- antitumour effect against DMBA-induced mammary cancer (in words) ([1]; compared with compound 7): Antitumour effect less than that of compound 7
- IC50 (oestrogen receptors): 10 to 100 µM
- IC50 [4]: 1 to 5 µM
